The results in this text go back to patent US8222219B2, “Glucopyranoside compound” (Mitsubishi Tanabe Pharma Corporation, priority 2003, dated 2012).

One experiment deals with T1, human SGLT2 (Homo sapiens, UniProt P31639).
T1 construct: expressed in transfected cells; host or cells: CHOK1 (CHO-K1) cells, kept under Geneticin selection
T1 sequence (P31639 1-672): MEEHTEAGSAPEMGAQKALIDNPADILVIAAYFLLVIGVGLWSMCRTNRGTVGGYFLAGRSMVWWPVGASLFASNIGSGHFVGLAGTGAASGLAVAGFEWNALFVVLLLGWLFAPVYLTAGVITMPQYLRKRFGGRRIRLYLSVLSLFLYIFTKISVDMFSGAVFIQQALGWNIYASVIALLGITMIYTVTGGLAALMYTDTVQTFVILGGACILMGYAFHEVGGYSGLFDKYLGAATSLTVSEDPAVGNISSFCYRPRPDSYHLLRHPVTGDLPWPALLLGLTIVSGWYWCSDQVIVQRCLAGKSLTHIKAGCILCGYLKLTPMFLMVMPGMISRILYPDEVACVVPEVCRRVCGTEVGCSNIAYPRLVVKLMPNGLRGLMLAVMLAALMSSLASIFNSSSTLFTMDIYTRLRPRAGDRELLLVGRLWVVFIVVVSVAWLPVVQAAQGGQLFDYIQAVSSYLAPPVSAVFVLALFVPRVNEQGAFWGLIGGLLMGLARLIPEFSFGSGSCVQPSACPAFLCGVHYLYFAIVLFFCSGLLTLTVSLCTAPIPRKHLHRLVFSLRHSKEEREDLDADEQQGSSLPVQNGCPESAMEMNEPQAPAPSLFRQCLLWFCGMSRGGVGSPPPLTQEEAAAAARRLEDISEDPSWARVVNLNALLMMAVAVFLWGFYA
The experiment can be described thus: Assay for SGLT2 inhibition (14C-AMG uptake in CHOK1 cells expressing human SGLT2). It is filed as cell-based.
Details: not given
On the procedure: 1. Assay for SGLT2 Inhibition
Compounds described in the above examples were used for the SGLT2 inhibition assay.
CHOK1 cells expressing human SGLT2 were seeded in 24-well plates at a density of 400,000 cells/well in F-12 nutrient mixture (Ham's F-12) containing 10% fetal bovine serum, 400 μg/ml Geneticin, 50 units/ml sodium penicillin G (Gibco-BRL) and 50 μg/ml streptomycin sulfate. […] Test compounds were dissolved in DMSO. The final concentration of DMSO was 0.5%. The transport reaction was initiated by addition of 50 μl [^14C]-methyl-α-D-glucopyranoside (^14C-AMG) solution (final concentration, 0.5 mM). After incubation for 2 hours at 37° C., the uptake was stopped by aspiration of the incubation mixture, the cells were washed three times with ice-cold PBS. Then, cells were solubilized with 0.3 N NaOH and aliquots were taken for determination of radioactivity by a liquid scintillation counter. Nonspecific AMG uptake was defined as that which occurred in the presence of 100 μM of phlorizin, a specific inhibitor of sodium-dependent glucose cotransporter. Specific uptake was normalized for the protein concentrations measured by the method of Bradford.
A word on the IC50: it is the concentration at which inhibition is half-maximal. Take `Cc1ccc([C@@H]2O[C@H](CO)[C@@H](O)[C@H](O)[C@H]2O)cc1Cc1ccc(-c2ccc(F)cc2)s1` [Example 84]: the IC50 is 2.2 nM.

Staying with this experiment, now noted: CHOK1 cells expressing human SGLT2; 14C-AMG uptake 0.5 mM, 2 hours at 37° C.; read-out: IC50.
In the case of `OC[C@H]1O[C@@H](c2ccc(Cl)c(Cc3ccc(-c4ccccc4F)s3)c2)[C@H](O)[C@@H](O)[C@@H]1O` [Example 69], the IC50 turned out to be 7.9 nM.

Consider `OC[C@H]1O[C@@H](c2ccc(Cl)c(Cc3ccc(-c4ccc(F)cc4)s3)c2)[C@H](O)[C@@H](O)[C@@H]1O` [Example 70], for which the IC50 is 7 nM.

Consider `CCOc1ccc(-c2ccc(Cc3cc([C@@H]4O[C@H](CO)[C@@H](O)[C@H](O)[C@H]4O)ccc3Cl)s2)cc1` [Example 71], for which the 50% inhibitory concentration (IC50) is 6.6 nM.

Consider `CCOc1cccc(-c2ccc(Cc3cc([C@@H]4O[C@H](CO)[C@@H](O)[C@H](O)[C@H]4O)ccc3Cl)s2)c1` [Example 72], for which the IC50 is 4.6 nM.

Regarding `OC[C@H]1O[C@@H](c2ccc(Cl)c(Cc3ccc(-c4cccc(F)c4)s3)c2)[C@H](O)[C@@H](O)[C@@H]1O` [Example 78], the IC50 came to 1.7 nM.

On to `CCOc1cccc(-c2ccc(Cc3cc([C@@H]4O[C@H](CO)[C@@H](O)[C@H](O)[C@H]4O)ccc3F)s2)c1` [Example 79], for which the IC50 stood at 9 nM.

In the case of `OC[C@H]1O[C@@H](c2ccc(F)c(Cc3ccc(-c4cccc(F)c4)s3)c2)[C@H](O)[C@@H](O)[C@@H]1O` [Example 80], the IC50 was 6.8 nM.

For `Cc1ccc([C@@H]2O[C@H](CO)[C@@H](O)[C@H](O)[C@H]2O)cc1Cc1ccc(-c2cccc(F)c2)s1` [Example 83], the IC50 is 1.3 nM.

Take `Cc1cccc(-c2ccc(Cc3cc([C@@H]4O[C@H](CO)[C@@H](O)[C@H](O)[C@H]4O)ccc3C)s2)c1` [Example 86]: the half-maximal inhibitory concentration (IC50) is 2.8 nM.

Take `Cc1cccc(-c2ccc(Cc3cc([C@@H]4O[C@H](CO)[C@@H](O)[C@H](O)[C@H]4O)ccc3Cl)s2)c1` [Example 87]: the IC50 is 3.4 nM.

`OC[C@H]1O[C@@H](c2ccc(Cl)c(Cc3ccc(-c4cccc(Cl)c4)s3)c2)[C@H](O)[C@@H](O)[C@@H]1O` [Example 88]: the IC50 turned out to be 2.6 nM.

As to `Cc1ccc([C@@H]2O[C@H](CO)[C@@H](O)[C@H](O)[C@H]2O)cc1Cc1ccc(-c2cccc(Cl)c2)s1` [Example 89], the IC50 was found to be 3 nM.

Turning to `COc1cccc(-c2ccc(Cc3cc([C@@H]4O[C@H](CO)[C@@H](O)[C@H](O)[C@H]4O)ccc3C)s2)c1` [Example 90], the IC50 was found to be 2 nM.

Consider `Cc1ccc([C@@H]2O[C@H](CO)[C@@H](O)[C@H](O)[C@H]2O)cc1Cc1ccc(-c2cccc(N(C)C)c2)s1` [Example 122, 1-(β-D-glucopyranosyl)-3-(5-(3-dimethylaminophenyl)-2-thienylmethyl)-4-methylbenzene], for which the IC50 was determined as 8.2 nM.

As for `Cc1ccc([C@@H]2O[C@H](CO)[C@@H](O)[C@H](O)[C@H]2O)cc1Cc1ccc(-c2cccc(C(F)F)c2)s1` [Example 130, 1-(β-D-glucopyranosyl)-3-(5-(3-difluoromethylphenyl)-2-thienylmethyl)-4-methylbenzene], the 50% inhibitory concentration (IC50) is 2.4 nM.

`Cc1ccc([C@@H]2O[C@H](CO)[C@@H](O)[C@H](O)[C@H]2O)cc1Cc1ccc(-c2ccc3c(c2)OCO3)s1` [Example 145]: the IC50 was 4 nM.

Consider `CCOc1cccc(-c2ccc(Cc3cc([C@@H]4O[C@H](CO)[C@@H](O)[C@H](O)[C@H]4O)ccc3Cl)s2)n1` [Example 173, 1-(β-D-glucopyranosyl)-4-chloro-3-(5-(6-ethoxy-2-pyridyl)-2-thienylmethyl)benzene], for which the IC50 came out at 8 nM.

Regarding `Cc1ccc([C@@H]2O[C@H](CO)[C@@H](O)[C@H](O)[C@H]2O)cc1Cc1ccc(-c2ccc(C(F)F)cc2)s1` [Example 176, 1-(β-D-glucopyranosyl)-3-(5-(4-difluoromethylphenyl)-2-thienylmethyl)-4-methylbenzene], the IC50 was 7.7 nM.

With `OC[C@H]1O[C@@H](c2ccc(Cl)c(Cc3ccc(-c4ccc(C(F)F)cc4)s3)c2)[C@H](O)[C@@H](O)[C@@H]1O` [Example 179, 1-(β-D-glucopyranosyl)-4-chloro-3-(5-(4-difluoromethylphenyl)-2-thienylmethyl)benzene], the IC50 was 9.8 nM.

With `N#Cc1ccc(-c2ccc(Cc3cc([C@@H]4O[C@H](CO)[C@@H](O)[C@H](O)[C@H]4O)ccc3Cl)s2)cc1F` [Example 183, 1-(β-D-glucopyranosyl)-4-chloro-3-(5-(4-cyano-3-fluorophenyl)-2-thienylmethyl)benzene], the IC50 stood at 9.5 nM.

In the case of `Cc1ccc([C@@H]2O[C@H](CO)[C@@H](O)[C@H](O)[C@H]2O)cc1Cc1ccc(-c2ccc(F)c(C#N)c2)s1` [Example 185, 1-(β-D-glucopyranosyl)-4-methyl-3-(5-(3-cyano-4-fluorophenyl)-2-thienylmethyl)benzene], the IC50 came to 5.6 nM.

`Cc1ccc([C@@H]2O[C@H](CO)[C@@H](O)[C@H](O)[C@H]2O)cc1Cc1ccc(-c2ccc(C#N)nc2)s1` [Example 186, 1-(β-D-glucopyranosyl)-3-(5-(2-cyano-5-pyridyl)-2-thienylmethyl)-4-methylbenzene]: the IC50 was 5.4 nM.

Regarding `N#Cc1ccc(-c2ccc(Cc3cc([C@@H]4O[C@H](CO)[C@@H](O)[C@H](O)[C@H]4O)ccc3Cl)s2)cn1` [Example 187, 1-(β-D-glucopyranosyl)-4-chloro-3-(5-(2-cyano-5-pyridyl)-2-thienylmethyl)benzene], the 50% inhibitory concentration (IC50) came out at 4.3 nM.

Regarding `NC(=O)c1ccc(-c2ccc(Cc3cc([C@@H]4O[C@H](CO)[C@@H](O)[C@H](O)[C@H]4O)ccc3Cl)s2)cn1` [Example 188, 1-(β-D-glucopyranosyl)-3-(5-(2-carbamoyl-5-pyridyl)-2-thienylmethyl)-4-chlorobenzene], the IC50 was 1.6 nM.

With `CCOC(=O)c1ccc(-c2ccc(Cc3cc([C@@H]4O[C@H](CO)[C@@H](O)[C@H](O)[C@H]4O)ccc3Cl)s2)cc1` [Example 191, 1-(β-D-glucopyranosyl)-4-chloro-3-(5-(4-ethoxycarbonylphenyl)-2-thienylmethyl)benzene], the IC50 was found to be 7.7 nM.

For `O=C(O)c1ccc(-c2ccc(Cc3cc([C@@H]4O[C@H](CO)[C@@H](O)[C@H](O)[C@H]4O)ccc3Cl)s2)cc1` [Example 192, 1-(β-D-glucopyranosyl)-3-(5-(4-carboxyphenyl)-2-thienylmethyl)-4-chlorobenzene], the IC50 stood at 7.4 nM.

In the case of `NC(=O)c1ccc(-c2ccc(Cc3cc([C@@H]4O[C@H](CO)[C@@H](O)[C@H](O)[C@H]4O)ccc3Cl)s2)cc1` [Example 193, 1-(β-D-glucopyranosyl)-3-(5-(4-carbamoylphenyl)-2-thienylmethyl)-4-chlorobenzene], the IC50 came to 0.9 nM.

`Nc1ccc(-c2ccc(Cc3cc([C@@H]4O[C@H](CO)[C@@H](O)[C@H](O)[C@H]4O)ccc3Cl)s2)cc1` [Example 197, 1-(β-D-glucopyranosyl)-3-(5-(4-aminophenyl)-2-thienylmethyl)-4-chlorobenzene]: the IC50 is 2 nM.

As for `Cc1ccc([C@@H]2O[C@H](CO)[C@@H](O)[C@H](O)[C@H]2O)cc1Cc1ccc(-c2cc(F)cc(F)c2)s1` [Example 201], the IC50 came out at 8.2 nM.

As to `OC[C@H]1O[C@@H](c2ccc(Cl)c(Cc3ccc(-c4cncs4)s3)c2)[C@H](O)[C@@H](O)[C@@H]1O` [Example 204], the IC50 was 1.4 nM.

As for `OC[C@H]1O[C@@H](c2ccc(Cl)c(Cc3ccc(-c4cscn4)s3)c2)[C@H](O)[C@@H](O)[C@@H]1O` [Example 207], the IC50 was 0.6 nM.

Consider `COc1cccc(-c2ccc(Cc3cc([C@@H]4O[C@H](CO)[C@@H](O)[C@H](O)[C@H]4O)ccc3C)s2)n1` [Example 208], for which the IC50 is 2.4 nM.

`COc1ccc(-c2ccc(Cc3cc([C@@H]4O[C@H](CO)[C@@H](O)[C@H](O)[C@H]4O)ccc3C)s2)cn1` [Example 209]: the IC50 was determined as 3.9 nM.

As for `Cc1ccc([C@@H]2O[C@H](CO)[C@@H](O)[C@H](O)[C@H]2O)cc1Cc1ccc(-c2cscn2)s1` [Example 210], the IC50 came to 1 nM.

As to `Cc1ccc([C@@H]2O[C@H](CO)[C@@H](O)[C@H](O)[C@H]2O)cc1Cc1ccc(-c2cccs2)s1` [Example 211], the IC50 is 1.2 nM.

`CCOc1cccc(-c2ccc(Cc3cc([C@@H]4O[C@H](CO)[C@@H](O)[C@H](O)[C@H]4O)ccc3C)s2)c1` [Example 212]: the IC50 worked out at 2.6 nM.

Consider `OC[C@H]1O[C@@H](c2ccc(Cl)c(Cc3ccc(-c4ccnc(F)c4)s3)c2)[C@H](O)[C@@H](O)[C@@H]1O` [Example 216], for which the IC50 was 3.3 nM.
